Test results from ChEMBL document CHEMBL5126669, “Discovery of 5,7-Dihydro-6H-pyrrolo[2,3-d]pyrimidin-6-ones as Highly Selective CDK2 Inhibitors” (ACS Med Chem Lett, 2022).

How the values were obtained:
[1] = Metabolic stability in Sprague-Dawley rat liver microsomes assessed as compound demethylation at 5 uM measured upto 30 mins by HPLC/MS analysis; format: ADME, Microsome; settings: 0.5 h
[2] = Metabolic stability in Cynomolgus monkey liver microsomes assessed as compound demethylation at 5 uM measured upto 30 mins by HPLC/MS analysis; format: ADME, Macaca fascicularis, Microsome; settings: 0.5 h
Homo sapiens [3] = species: Homo sapiens; experiment: Selectivity ratio of IC50 for inhibition of CDK4/cyclin D1 (unknown origin) to IC50 for inhibition recombinant human N-terminal GST-tagged full-length CDK2/Flag-tagged cyclinE1 expressed in baculovirus expression system
[4] = Metabolic stability in Cynomolgus monkey liver microsomes assessed as remaining parent compound at 5 uM measured upto 30 mins by HPLC/MS analysis; format: ADME, Macaca fascicularis, Microsome; settings: 0.5 h
[5] = molecular target: Cyclin-dependent kinase 2 (Homo sapiens, UniProt P24941); experiment: Inhibition of CDK2 in human COV318 cells incubated for overnight in presence of human whole blood by HTRF assay; format: cell-based
[6] = molecular target: Cyclin-dependent kinase 2/cyclin E1 (Homo sapiens, UniProt P24941); experiment: Inhibition of recombinant human N-terminal GST-tagged full-length CDK2/Flag-tagged cyclinE1 expressed in baculovirus expression system using eIF4E-binding protein-1 peptide as substrate incubated for 1 hr in presence of ATP by HTRF assay
[7] = Metabolic stability in human liver microsomes assessed as compound demethylation at 5 uM measured upto 30 mins by HPLC/MS analysis; format: ADME, Microsome; settings: 0.5 h
Homo sapiens [8] = species: Homo sapiens; experiment: Selectivity ratio of IC50 for inhibition of CDK1 (unknown origin) to IC50 for inhibition recombinant human N-terminal GST-tagged full-length CDK2/Flag-tagged cyclinE1 expressed in baculovirus expression system; settings: tested as the 2H-labelled form
[9] = Metabolic stability in Cynomolgus monkey liver microsomes assessed as compound oxidation at 5 uM measured upto 30 mins by HPLC/MS analysis; format: ADME, Macaca fascicularis, Microsome; settings: 0.5 h
Homo sapiens [10] = species: Homo sapiens; experiment: Selectivity ratio of IC50 for inhibition of CDK4 (unknown origin) to IC50 for inhibition recombinant human N-terminal GST-tagged full-length CDK2/Flag-tagged cyclinE1 expressed in baculovirus expression system; settings: tested as the 2H-labelled form
[11] = Metabolic stability in human liver microsomes assessed as remaining parent compound at 5 uM measured upto 30 mins by HPLC/MS analysis; format: ADME, Microsome; settings: microsomes, 0.5 h, 5 µM
Homo sapiens [12] = species: Homo sapiens; experiment: Selectivity ratio of IC50 for inhibition of CDK6 (unknown origin) to IC50 for inhibition recombinant human N-terminal GST-tagged full-length CDK2/Flag-tagged cyclinE1 expressed in baculovirus expression system; settings: tested as the 2H-labelled form
[13] = Metabolic stability in Sprague-Dawley rat liver microsomes assessed as compound oxidation at 5 uM measured upto 30 mins by HPLC/MS analysis; format: ADME, Microsome; settings: 0.5 h
Homo sapiens [14] = species: Homo sapiens; experiment: Selectivity ratio of IC50 for inhibition of CDK9 (unknown origin) to IC50 for inhibition recombinant human N-terminal GST-tagged full-length CDK2/Flag-tagged cyclinE1 expressed in baculovirus expression system; settings: tested as the 2H-labelled form
[15] = Metabolic stability in Sprague-Dawley rat liver microsomes assessed as remaining parent compound at 5 uM measured upto 30 mins by HPLC/MS analysis; format: ADME, Microsome; settings: 0.5 h
Homo sapiens [16] = species: Homo sapiens; experiment: Selectivity ratio of IC50 for inhibition of CDK1/cyclin B (unknown origin) to IC50 for inhibition recombinant human N-terminal GST-tagged full-length CDK2/Flag-tagged cyclinE1 expressed in baculovirus expression system
[17] = Intrinsic clearance in human liver microsomes at 1 uM measured upto 30 mins by LC/MS analysis; format: ADME, Microsome; settings: read-out: CLH (converted)
Homo sapiens [18] = species: Homo sapiens; experiment: Selectivity ratio of IC50 for inhibition of CDK6/cyclin D1 (unknown origin) to IC50 for inhibition recombinant human N-terminal GST-tagged full-length CDK2/Flag-tagged cyclinE1 expressed in baculovirus expression system
[19] = Metabolic stability in human liver microsomes assessed as compound oxidation at 5 uM measured upto 30 mins by HPLC/MS analysis; format: ADME, Microsome; settings: microsomes, 0.5 h, 5 µM

In the case of `CNS(=O)(=O)c1ccc(Nc2ncc3c(n2)N([C@@H]2CCC[C@@]2(C)O)C(=O)C32CC2)cc1` (relative stereo), the Drug metabolism [1] is reported as 35%, the Drug metabolism [2] is reported as 98% and the Ratio IC50 (Homo sapiens [3]) is reported as 230. It also gave a Stability [4] of 0.1%, an IC50 [5] of 350 nM and an IC50 [6] of 1.2 nM. The Drug metabolism [7] was 26%, the Ratio IC50 (Homo sapiens [8]) was 490 and the Drug metabolism [9] was 8%. The Ratio IC50 (Homo sapiens [10]) was 240, the Stability [11] was 68% and the Ratio IC50 (Homo sapiens [12]) was 95. It also gave a Drug metabolism [13] of 74%, a Ratio IC50 (Homo sapiens [14]) of 2800 and a Stability [15] of 0.1%. The Ratio IC50 (Homo sapiens [16]) was 520, the predicted hepatic clearance at 1 µM [17] was 13.3 mL/min/kg and the Ratio IC50 (Homo sapiens [18]) was 88. It also gave a Drug metabolism [19] of 6%.
